Results reported in US10875851B2, “Factor XIIa inhibitors” (Merck Sharp & Dohme Corp., priority 2016, dated 2020).

What follows are compounds tested against human Factor XIIa (Homo sapiens (Human), UniProt P00748) (assay: Factor XIIa Assay). Conditions: purified human Factor XIIa 500 pM; substrate n-Acetyl-Lys-Pro-Arg-AFC 100 μM; pH 7.4; read-out: FXIIa IC50.
Format: biochemical
Summary of the method: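 Purified human FXIIa at 500 pM final with 100 μM n-Acetyl-Lys-Pro-Arg-AFC in 50 mM HEPES, 150 mM NaCl, 5 mM CaCl2, 0.1% PEG 8000, pH 7.4, at room temperature or 37° C. Initial fluorogenic hydrolysis rates measured after enzyme–inhibitor equilibration; IC50 taken where Vi=Vo/2.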

human Factor XIIa, sequence (P00748 373-615): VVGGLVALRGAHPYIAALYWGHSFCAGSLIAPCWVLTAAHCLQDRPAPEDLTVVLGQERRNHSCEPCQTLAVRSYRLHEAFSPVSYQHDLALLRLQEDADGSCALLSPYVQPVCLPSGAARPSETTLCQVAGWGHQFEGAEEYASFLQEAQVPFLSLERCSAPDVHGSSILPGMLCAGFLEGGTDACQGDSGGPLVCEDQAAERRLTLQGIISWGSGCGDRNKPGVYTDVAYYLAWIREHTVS

| IC50 [nM] | SMILES |
| --- | --- |
| 10.3 | Cc1cccc([C@@H]2OC(N3CCN(C(=O)[C@@H](CCCCNS(C)(=O)=O)NC4CCCCC4)[C@H](C(=O)NCc4cccs4)C3)=N[C@H]2C)c1 [Example 134, (2S)-1-[N^2-cyclohexyl-N^6-(methylsulfonyl)-D-lysyl]-4-[(4S,5S)-4-methyl-5-(3-methylphenyl)-4,5-dihydro-1,3-oxazol-2-yl]-N-(thiophen-2-ylmethyl)piperazine-2-carboxamide] |
| 48.5 | CN(C)CCCC[C@H](C(=O)N1CCN(C2=NC(C)(C)C(c3ccccc3)O2)C[C@H]1C(=O)NCc1cc(CN)cs1)N(C)C (stereo partly drawn) [Example 150, (2S)-N-{[4-(aminomethyl)thiophen-2-yl]methyl}-4-(4,4-dimethyl-5-phenyl-4,5-dihydro-1,3-oxazol-2-yl)-1-(N^2,N^2,N^6,N^6-tetramethyl-D-lysyl)piperazine-2-carboxamide] |
| 12.7 | CN(C)CCCC[C@H](C(=O)N1CCN(C2=NC(C)(C)C(c3ccccc3)O2)C[C@H]1C(=O)NCc1ccc(CN)c(F)c1)N(C)C (stereo partly drawn) [Example 148, (2S)-N-[4-(aminomethyl)-3-fluorobenzyl]-4-(4,4-dimethyl-5-phenyl-4,5-dihydro-1,3-oxazol-2-yl)-1-(N^2,N^2,N^6,N^6-tetramethyl-D-lysyl)piperazine-2-carboxamide] |
| 10.2 | C[C@@H]1N=C(N2CCN(C(=O)[C@@H](CCCCNS(C)(=O)=O)NC3CCC4(CC3)CCN(Cc3ccccc3)C4)[C@H](C(=O)NCc3cccs3)C2)O[C@H]1c1ccccc1 (stereo partly drawn) [Example 128, (2S)-1-[N^2-(2-benzyl-2-azaspiro[4.5]dec-8-yl)-N^6-(methylsulfonyl)-D-lysyl]-4-[(4S,5S)-4-methyl-5-phenyl-4,5-dihydro-1,3-oxazol-2-yl]-N-(thiophen-2-ylmethyl)piperazine-2-carboxamide] |
| 1.2 | C[C@@H]1N=C(N2CCN(C(=O)[C@@H](CCCCN(C)C)NC3CCC4(CC3)CCN(Cc3ccccc3)C4)[C@H](C(=O)NCc3cccs3)C2)O[C@H]1c1ccccc1 (stereo partly drawn) [Example 130, (2S)-1-[N^2-(2-benzyl-2-azaspiro[4.5]dec-8-yl)-N^6,N^6-dimethyl-D-lysyl]-4-[(4S,5S)-4-methyl-5-phenyl-4,5-dihydro-1,3-oxazol-2-yl]-N-(thiophen-2-ylmethyl)piperazine-2-carboxamide] |
| 54.4 | CC1(C)N=C(N2CCN(C(=O)[C@H](N)CCCCN3CCCCC3)[C@H](C(=O)NCc3cc4cnccc4s3)C2)OC1c1ccccc1 (stereo partly drawn) [Example 158, (2S)-4-(4,4-dimethyl-5-phenyl-4,5-dihydro-1,3-oxazol-2-yl)-1-(6-piperidin-1-yl-D-norleucyl)-N-(thieno[3,2-c]pyridin-2-ylmethyl)piperazine-2-carboxamide] |
| 5.2 | C[C@@H]1N=C(N2CCN(C(=O)[C@@H](CCCCNS(C)(=O)=O)NC3CCCCC3)[C@H](C(=O)NCc3cccs3)C2)O[C@H]1c1cccc(CN)c1 [Example 117, (2S)-4-{(4S,5S)-5-[3-(aminomethyl)phenyl]-4-methyl-4,5-dihydro-1,3-oxazol-2-yl}-1-[N^2-cyclohexyl-N^6-(methylsulfonyl)-D-lysyl]-N-(thiophen-2-ylmethyl)piperazine-2-carboxamide] |
| 36.1 | C[C@@H]1N=C(N2CCN(C(=O)[C@H](N)CCCCN3CCCCC3)[C@H](C(=O)NCc3cccc(Cl)c3)C2)O[C@H]1c1cccc(Br)c1 [Example 167, (2S)-4-[(4S,5S)-5-(3-bromophenyl)-4-methyl-4,5-dihydro-1,3-oxazol-2-yl]-N-(3-chlorobenzyl)-1-(6-piperidin-1-yl-D-norleucyl)piperazine-2-carboxamide] |
| 4.6 | CC(C)N[C@H](CCCCN1CCCCC1)C(=O)N1CCN(C2=N[C@@H](C)[C@H](c3ccccc3)O2)C[C@H]1C(=O)NCc1cc(CN)cs1 [Example 178, (2S)-N-{[4-(aminomethyl)thiophen-2-yl]methyl}-1-[N-(1-methylethyl)-6-piperidin-1-yl-D-norleucyl]-4-[(4S,5S)-4-methyl-5-phenyl-4,5-dihydro-1,3-oxazol-2-yl]piperazine-2-carboxamide] |
| 27.4 | CC(C)N[C@H](CCCCN1CCCCC1)C(=O)N1CCN(C2=NC(C)(C)C(c3ccccc3)O2)C[C@H]1C(=O)NCc1cc2cnccc2s1 (stereo partly drawn) [Example 159, (2S)-4-(4,4-dimethyl-5-phenyl-4,5-dihydro-1,3-oxazol-2-yl)-1-[N-(1-methylethyl)-6-piperidin-1-yl-D-norleucyl]-N-(thieno[3,2-c]pyridin-2-ylmethyl)piperazine-2-carboxamide] |
| 14.2 | C[C@H]1N=C(N2CCN(C(=O)[C@@H](CCCCNS(C)(=O)=O)NC3CCCCC3)[C@H](C(=O)NCc3cccs3)C2)O[C@H]1c1ccccc1 [Example 151, (2S)-1-[N^2-cyclohexyl-N^6-(methylsulfonyl)-D-lysyl]-4-[(4R,5S)-4-methyl-5-phenyl-4,5-dihydro-1,3-oxazol-2-yl]-N-(thiophen-2-ylmethyl)piperazine-2-carboxamide] |
| 0.5 | CC(C)N[C@H](CCCCN1CCCCC1)C(=O)N1CCN(C2=N[C@@H](C)[C@H](c3ccccc3)O2)C[C@H]1C(=O)NCc1ccc2[nH]cc(Cl)c2c1 [Example 171, (2S)-N-[(3-chloro-1H-indol-5-yl)methyl]-1-[N-(1-methylethyl)-6-piperidin-1-yl-D-norleucyl]-4-[(4S,5S)-4-methyl-5-phenyl-4,5-dihydro-1,3-oxazol-2-yl]piperazine-2-carboxamide] |

| SMILES | IC50 [nM] |
| --- | --- |
| CN(C)CCCC[C@@H](NC1CCC2(CC1)CCN(Cc1ccccc1)C2)C(=O)N1CCN(C(=O)Oc2ccccc2Cl)C[C@H]1C(=O)NCc1cccs1 (stereo partly drawn) [Example 78, 2-chlorophenyl (3S)-4-[N^2-(2-benzyl-2-azaspiro[4.5]dec-8-yl)-N^6,N^6-dimethyl-D-lysyl]-3-[(thiophen-2-ylmethyl)carbamoyl]piperazine-1-carboxylate] | 0.9 |
| COc1cc(CNC(=O)[C@@H]2CN(C(=O)Oc3cccc(CN)c3)CCN2C(=O)[C@@H](CCCCNS(C)(=O)=O)NC2CCC3(CC2)CCN(Cc2ccccc2)C3)ccc1CN (stereo partly drawn) [Example 76, 3-(aminomethyl)phenyl (3S)-3-{[4-(aminomethyl)-3-methoxybenzyl]carbamoyl}-4-[N^2-(2-benzyl-2-azaspiro[4.5]dec-8-yl)-N^6= (methylsulfonyl)-D-lysyl]piperazine-1-carboxylate] | 4.1 |
| NCc1cccc(OC(=O)N2CCN(C(=O)[C@@H](CC3CCCCC3)NC3CCCCC3)[C@H](C(=O)NCc3cccs3)C2)c1Cl [Example 55, 3-(aminomethyl)-2-chlorophenyl (3S)-4-(N,3-dicyclohexyl-D-alanyl)-3-[(thiophen-2-ylmethyl)carbamoyl]piperazine-1-carboxylate] | 1.1 |
| Cc1ccc(OC(=O)N2CCN(C(=O)[C@@H](CCCCN(C)C)N(C)C3CCC4(CC3)CCN(Cc3ccccc3)C4)[C@H](C(=O)NCc3cccs3)C2)c(Cl)c1C (stereo partly drawn) [Example 100, 2-chloro-3,4-dimethylphenyl (3S)-4-[N^2-(2-benzyl-2-azaspiro[4.5]dec-8-yl)-N^2,N^6,N^6-trimethyl-D-lysyl]-3-[(thiophen-2-ylmethyl)carbamoyl]piperazine-1-carboxylate] | 0.5 |
| CC[C@@H](NC1CCCCC1)C(=O)N1CCN(C(=O)Oc2ccc(C)c(C)c2Cl)C[C@H]1C(=O)NCc1ccc(CN)c(OC)c1 [Example 106, 2-chloro-3,4-dimethylphenyl (3S)-3-{[4-(aminomethyl)-3-methoxybenzyl]carbamoyl}-4-[(2R)-2-(cyclohexylamino)butanoyl]piperazine-1-carboxylate] | 6.2 |
| O=C(NCc1cccs1)[C@@H]1CN(C(=O)Oc2cccc3c2CCNC3)CCN1C(=O)[C@@H](CC1CCCCC1)NC1CCCCC1 [Example 36, 1,2,3,4-tetrahydroisoquinolin-5-yl (3S)-4-(N,3-dicyclohexyl-D-alanyl)-3-[(thiophen-2-ylmethyl)carbamoyl]piperazine-1-carboxylate] | 4.1 |
| O=C(NCc1cccs1)[C@@H]1CN(C(=O)Oc2cccc3cncnc23)CCN1C(=O)[C@@H](CC1CCCCC1)NC1CCCCC1 [Example 18, quinazolin-8-yl (3S)-4-(N,3-dicyclohexyl-D-alanyl)-3-[(thiophen-2-ylmethyl)carbamoyl]piperazine-1-carboxylate] | 4.5 |
| Cc1ccc(OC(=O)N2CCN(C(=O)[C@@H](CCCCN3CCCC3)NC3CCC4(CC3)CCN(Cc3ccccc3)C4)[C@H](C(=O)NCc3cccs3)C2)c(Cl)c1C (stereo partly drawn) [Example 109, 2-chloro-3,4-dimethylphenyl (3S)-4-[N-(2-benzyl-2-azaspiro[4.5]dec-8-yl)-6-pyrrolidin-1-yl-D-norleucyl]-3-[(thiophen-2-ylmethyl)carbamoyl]piperazine-1-carboxylate] | 1 |
| O=C(NCc1cccs1)[C@@H]1CN(C(=O)Oc2cccc3ccc(O)nc23)CCN1C(=O)[C@@H](CC1CCCCC1)NC1CCCCC1 [Example 33, 2-hydroxyquinolin-8-yl (3S)-4-(N,3-dicyclohexyl-D-alanyl)-3-[(thiophen-2-ylmethyl)carbamoyl]piperazine-1-carboxylate] | 20 |
| NCc1ccc(OC(=O)N2CCN(C(=O)[C@@H](CC3CCCCC3)NC3CCC4(CC3)CCN(Cc3ccccc3)C4)[C@H](C(=O)NCc3cccs3)C2)c2ccccc12 (stereo partly drawn) [Example 59, 4-(aminomethyl)naphthalen-1-yl (3S)-4-[N-(2-benzyl-2-azaspiro[4.5]dec-8-yl)-3-cyclohexyl-D-alanyl]-3-[(thiophen-2-ylmethyl)carbamoyl]piperazine-1-carboxylate] | 4.6 |
| Cc1ccc(OC(=O)N2CCN(C(=O)[C@@H](CCCCN3CCCCC3)NC3CCC4(CC3)CCN(Cc3ccccc3)C4)[C@H](C(=O)NCc3cccs3)C2)c(Cl)c1C (stereo partly drawn) [Example 104, 2-chloro-3,4-dimethylphenyl (3S)-4-[N-(2-benzyl-2-azaspiro[4.5]dec-8-yl)-6-piperidin-1-yl-D-norleucyl]-3-[(thiophen-2-ylmethyl)carbamoyl]piperazine-1-carboxylate] | 0.2 |
